Assay results taken from patent publication US20090082456A1, “SOLUBLE EPOXIDE HYDROLASE INHIBITORS” (Arete Therapeutics, Inc., priority 2007, published 2009).

Experiments:
[1] = test system: soluble epoxide hydrolase (sEH); test: Fluorescent assay for mouse and human soluble epoxide hydrolase (CMNPC substrate); format: biochemical
Excerpt: Recombinant mouse sEH (MsEH) and human sEH (HsEH) were produced in a baculovirus expression system as previously reported. Grant et al., J. Biol. Chem., 268:17628-17633 (1993); Beetham et al., Arch. Biochem. Biophys., 305:197-201 (1993). The expressed proteins were purified from cell lysate by affinity chromatography. Wixtrom et al., Anal. Biochem., 169:71-80 (1988). Protein concentration was quantified using the Pierce BCA assay using bovine serum albumin as the calibrating standard. The preparations were at least 97% pure as judged by SDS-PAGE and scanning densitometry. They contained no detectable esterase or glutathione transferase activity which can interfere with the assay. The assay was also evaluated with similar results in crude cell lysates or homogenate of tissues. The IC50s for each inhibitor were according to the following procedure: Cyano(2-methoxynaphthalen-6-yl)methyl (3-phenyloxiran-2-yl)methyl carbonate (CMNPC; Jones P. D. et. al.; Analytical Biochemistry 2005; 343: pp. 66-75) Bis/Tris HCl 25 mM pH 7.0 containing 0.1 mg/mL of BSA (buffer A) Mother solution of enzyme in buffer A (Mouse sEH at 6 μg/mL and Human sEH at 5 μg/mL). Inhibitor dissolved in DMSO at the appropriate concentration. In a black 96 well plate, fill all the wells with 150 μL of buffer A. Add 2 μL of DMSO in well A2 and A3, and then add 2 μL of inhibitor solution in A1 and A4 through A12. Add 150 μL of buffer A in row A, then mix several time and transfer 150 μL to row B. Repeat this operation up to row H. The 150 μL removed from row H go to the trash. Add 20 μL of buffer A in column 1 and 2, then add 20 μL of enzyme solution to column 3 to 12. Incubate the plate for 5 minutes in the plate reader at 30° C. During incubation prepare the working solution of substrate by mixing 3.68 mL of buffer A (4×0.920 mL) with 266 μL (2×133 μL) of substrate solution). At t=0, add 30 μL of working substrate solution with multi-channel pipette labeled “Briggs 303” and start the reading ([S]final: 5 μM). Read with ex: 330 nm (20 nm) and em: 465 nm (20 nm) every 30 second for 10 minutes. The velocities are used to analyze and calculate the IC50s.

% Inh ([1]; Conc 200 nM) | melting point | % Inh ([1]; Conc 1000 nM) | % Inh ([1]; Conc 2000 nM) | Compound
98% | 296 to 299 °C |  |  | O=C(Nc1ccc(F)cc1)NC1CCC(NS(=O)(=O)c2cccc(C(F)(F)F)c2)CC1 (stereo not shown) [Compound 3, N-(4-(3-(4-fluorophenyl)ureido)cyclohexyl)-3-(trifluoromethyl)benzenesulfonamide]
93% |  |  |  | CC(=O)NC1CCC(NC(=O)Nc2ccc(C(F)(F)F)cc2)CC1 (stereo not shown) [Compound 4, N-(4-(3-(4-(trifluoromethyl)phenyl)ureido)cyclohexyl)acetamide]
99% | 237 to 239 °C |  |  | CS(=O)(=O)NC1CCC(NC(=O)Nc2ccc(C(F)(F)F)cc2)CC1 (stereo not shown) [Compound 6, N-(4-(3-(4-(trifluoromethyl)phenyl)ureido)cyclohexyl)methanesulfonamide]

Further lines, the molecule ahead of its results:

Compound | % Inh ([1]; Conc 200 nM) | melting point | % Inh ([1]; Conc 1000 nM) | % Inh ([1]; Conc 2000 nM)
O=C(NC1CCC(NS(=O)(=O)c2cccc(C(F)(F)F)c2)CC1)NC12CC3CC(CC(C3)C1)C2 (stereo not shown) [Compound 1, N-(4-(3-(adamantan-1-yl)ureido)cyclohexyl)-3-(trifluoromethyl)benzenesulfonamide] | 98% | 310 to 312 °C |  | 
CC(=O)NC1CCC(NC(=O)NC23CC4CC(CC(C4)C2)C3)CC1 (stereo not shown) [Compound 2, N-(4-(3-(adamantan-1-yl)ureido)cyclohexyl)acetamide] |  | > 300 °C | 98% | 
CS(=O)(=O)NC1CCC(NC(=O)NC23CC4CC(CC(C4)C2)C3)CC1 (stereo not shown) [Compound 5, N-(4-(3-(adamantan-1-yl)ureido)cyclohexyl)methanesulfonamide] | 96% | > 300 °C |  | 
CS(=O)(=O)NC1CCC(NC(=O)c2ccc(F)cc2)CC1 (stereo not shown) [Compound 7, 4-fluoro-N-(4-(methylsulfonamido)cyclohexyl)benzamide] |  | 269 to 270 °C |  | 44%
